Measured values taken from patent US7256205B2, “Nitrosated and nitrosylated H2 receptor antagonist compounds, compositions and methods of use” (NitroMed, Inc., priority 1998, dated 2007).
“Also recorded” adds a separate entry of the source.

Tested on: gastric lesions produced by the ethanol/HCl mixture
Test: ethanol/HCl mixture-induced gastric lesion test in rats
Format: in vivo, Male Sprague Dawley rats
Conditions: oral gavage 30 min before 60% ethanol in 150 mM HCl, lesions scored 60 min after
Description: The ethanol/HCl mixture-induced gastric lesion test in rats described by Takeuchi et al, J. Pharmacol. Exp. Ther., 286: 115-121 (1998), was used to evaluate the gastric lesion activity. Male Sprague Dawley rats (Charles River Laboratories, Wilmington, Mass.) weighing 230-250 g were used for the experiments. The rats were housed with laboratory chow and water ad libitum prior to the study. The rats were fasted for 24 hours with free access to water and then dosed by oral gavage with vehicle or with the test compounds given at a volume of 0.5 ml/100 g body weight. Thirty minutes after oral dosing all the rats received 1 ml of a solution of 60% ethanol in 150 mM HCl intragastrically. Food was withheld after dosing. Sixty minutes after ethanol/HCl, rats were euthanized by pre-charged CO2. The stomachs were dissected along the greater curvature, washed with a directed stream of 0.9% saline and pinned open on a sylgard based petri dish for examination of the hemorrhagic lesions. Gastric lesion score was expressed in mm and calculated by summing the length of each lesion as described by Al-Ghamdi et al, J. Int. Med. Res., 19: 2242 (1991). Results are expressed as the mean±standard error of the mean. Statistical analysis were conducted using ANOVA test followed by a Student-Newman-Keuls post-hoc test using the Abacus Concepts, Super Anova computer program (Abacus Concepts, Inc., Berkeley, Calif.).

| Structure (SMILES) | inhibition of the formation of gastric lesions (gastric lesion score) relative to vehicle alone (160 μmol/kg) | inhibition of the formation of gastric lesions (gastric lesion score) relative to vehicle alone (320 μmol/kg) |
| --- | --- | --- |
| CN/C(=N/CCSCc1nc[nH]c1C)NC#N [Cimetidine, reference compound] | failed to significantly inhibit the formation of gastric lesions; also recorded: did not significantly inhibit the formation of gastric lesions | failed to significantly inhibit the formation of gastric lesions; also recorded: did not significantly inhibit the formation of gastric lesions |
| CNC(=NCCSCc1ncn(C(=O)CC2(SN=O)C3CC4CC(C3)CC2C4)c1C)NC#N (stereo not shown) [Example 1, (2Z)-2-aza-3-(methylamino)-3-((2-((5-methyl-1-(2-(2-(nitrosothio)adamantan-2-yl)acetyl)imidazol-4-yl)methylthio)ethyl)amino)prop-2-enenitrile] | significantly inhibited the formation of gastric lesions | significantly inhibited the formation of gastric lesions |
